Assay results as given in ChEMBL document CHEMBL4825781, “Role of Fluorination in the Histone Deacetylase 6 (HDAC6) Selectivity of Benzohydroxamate-Based Inhibitors” (ACS Med Chem Lett, 2021).

Columns and labels:
Homo sapiens = species on record: Homo sapiens; assay: Selectivity index, ratio of IC50 for recombinant human C-terminal His-tagged HDAC1 expressed in Sf9 cells to IC50 for recombinant human full length N-terminal GST-tagged HDAC6 expressed in Sf9 cells
[1] = target: T1, Protein deacetylase HDAC6 (Homo sapiens, UniProt Q9UBN7); assay: Inhibition of recombinant human full length N-terminal GST-tagged HDAC6 expressed in Sf9 insect cells using Fluor de Lys deacetylase or Fluor de Lys Green deacetylase substrate by fluorescent microplate reader assay
T1 sequence (Q9UBN7 whole entry): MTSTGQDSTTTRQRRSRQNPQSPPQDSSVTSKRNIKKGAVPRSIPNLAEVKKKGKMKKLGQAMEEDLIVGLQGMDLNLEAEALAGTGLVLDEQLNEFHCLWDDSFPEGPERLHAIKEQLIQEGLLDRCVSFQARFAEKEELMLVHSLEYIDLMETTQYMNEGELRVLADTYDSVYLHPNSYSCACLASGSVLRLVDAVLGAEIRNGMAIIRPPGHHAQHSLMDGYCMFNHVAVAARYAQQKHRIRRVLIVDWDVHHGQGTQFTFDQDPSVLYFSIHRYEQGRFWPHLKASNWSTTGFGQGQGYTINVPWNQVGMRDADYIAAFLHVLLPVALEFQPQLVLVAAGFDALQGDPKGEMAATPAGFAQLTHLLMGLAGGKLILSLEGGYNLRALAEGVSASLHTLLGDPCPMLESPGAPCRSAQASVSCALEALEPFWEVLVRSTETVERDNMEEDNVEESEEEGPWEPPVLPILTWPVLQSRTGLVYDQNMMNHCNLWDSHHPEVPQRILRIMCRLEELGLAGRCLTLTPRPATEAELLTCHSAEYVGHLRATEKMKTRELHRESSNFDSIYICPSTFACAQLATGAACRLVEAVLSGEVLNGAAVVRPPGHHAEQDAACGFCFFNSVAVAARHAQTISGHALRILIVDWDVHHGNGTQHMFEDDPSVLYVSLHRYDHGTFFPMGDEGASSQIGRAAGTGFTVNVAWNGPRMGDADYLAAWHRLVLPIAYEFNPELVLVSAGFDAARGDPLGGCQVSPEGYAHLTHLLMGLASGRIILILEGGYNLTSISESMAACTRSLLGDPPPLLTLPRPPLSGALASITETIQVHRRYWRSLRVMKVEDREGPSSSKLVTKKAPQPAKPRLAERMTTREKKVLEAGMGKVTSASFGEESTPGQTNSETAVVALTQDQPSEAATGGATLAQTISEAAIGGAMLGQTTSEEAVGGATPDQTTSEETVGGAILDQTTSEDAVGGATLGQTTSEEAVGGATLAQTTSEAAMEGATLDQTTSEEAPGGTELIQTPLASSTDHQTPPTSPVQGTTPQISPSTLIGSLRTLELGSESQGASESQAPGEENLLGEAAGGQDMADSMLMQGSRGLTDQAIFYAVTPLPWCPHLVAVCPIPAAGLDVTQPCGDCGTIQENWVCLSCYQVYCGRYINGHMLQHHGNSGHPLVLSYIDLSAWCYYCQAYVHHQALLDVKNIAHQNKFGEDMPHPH

Histone deacetylase 1 = Histone deacetylase 1 (Homo sapiens, UniProt Q13547); assay: Inhibition of recombinant human C-terminal His-tagged HDAC1 expressed in Sf9 insect cells using Fluor de Lys deacetylase or Fluor de Lys Green deacetylase as substrate by fluorescent microplate reader assay
Histone deacetylase 8 = target: T2, Histone deacetylase 8 (Homo sapiens, UniProt Q9BY41); assay: Inhibition of recombinant human full length C-terminal His-tagged HDAC8 expressed in baculovirus expression system using Fluor de Lys deacetylase or Fluor de Lys Green deacetylase substrate by fluorescent microplate reader assay
T2 sequence (Q9BY41 whole entry): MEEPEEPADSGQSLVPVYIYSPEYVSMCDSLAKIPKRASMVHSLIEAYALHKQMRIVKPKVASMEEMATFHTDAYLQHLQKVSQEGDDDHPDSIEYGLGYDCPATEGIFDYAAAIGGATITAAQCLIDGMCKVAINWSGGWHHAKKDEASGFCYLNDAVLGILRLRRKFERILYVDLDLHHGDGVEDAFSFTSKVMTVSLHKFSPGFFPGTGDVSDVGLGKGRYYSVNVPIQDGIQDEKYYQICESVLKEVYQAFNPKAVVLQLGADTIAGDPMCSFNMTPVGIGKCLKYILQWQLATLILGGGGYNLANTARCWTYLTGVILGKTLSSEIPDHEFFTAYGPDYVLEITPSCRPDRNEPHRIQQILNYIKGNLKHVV

Histone deacetylase 2 = Histone deacetylase 2 (Homo sapiens, UniProt Q92769); assay: Inhibition of recombinant human C-terminal His-tagged HDAC2 (1 to 488 residues) expressed in Sf9 insect cells using Fluor de Lys deacetylase or Fluor de Lys Green deacetylase substrate by fluorescent microplate reader assay
Histone deacetylase 5 = Histone deacetylase 5 (Homo sapiens, UniProt Q9UQL6); assay: Inhibition of recombinant human ful length N-terminal GST-tagged HDAC5 expressed in baculovirus expression system using Nepsilon-Trifluoroacetyl L-lysine as substrate by fluorescent microplate reader assay
Histone deacetylase 9 = Histone deacetylase 9 (Homo sapiens, UniProt Q9UKV0); assay: Inhibition of recombinant human C-terminal His-tagged HDAC9 (604 to 1066 residues) expressed in baculovirus expression system using Nepsilon-Trifluoroacetyl L-lysine substrate by fluorescent microplate reader assay
Histone deacetylase 4 = Histone deacetylase 4 (Homo sapiens, UniProt P56524); assay: Inhibition of recombinant human N-terminal GST-tagged and C-terminal His-tagged HDAC4 (627 to 1084 residues) expressed in Sf9 insect cells using Nepsilon-Trifluoroacetyl L-lysine as substrate by fluorescent microplate reader assay
Histone deacetylase 3 = Histone deacetylase 3 (Homo sapiens, UniProt O15379); assay: Inhibition of recombinant human C-terminal His-tagged HDAC3 (1 to 428 residues) expressed in Sf9 insect cells using Fluor de Lys deacetylase or Fluor de Lys Green deacetylase substrate by fluorescent microplate reader assay
Histone deacetylase 11 = target: T3, Histone deacetylase 11 (Homo sapiens, UniProt Q96DB2); assay: Inhibition of recombinant human N-terminal His-tagged HDAC11 expressed in baculovirus expression system using Fluor de Lys deacetylase or Fluor de Lys Green deacetylase substrate by fluorescent microplate reader assay
T3 sequence (Q96DB2 whole entry): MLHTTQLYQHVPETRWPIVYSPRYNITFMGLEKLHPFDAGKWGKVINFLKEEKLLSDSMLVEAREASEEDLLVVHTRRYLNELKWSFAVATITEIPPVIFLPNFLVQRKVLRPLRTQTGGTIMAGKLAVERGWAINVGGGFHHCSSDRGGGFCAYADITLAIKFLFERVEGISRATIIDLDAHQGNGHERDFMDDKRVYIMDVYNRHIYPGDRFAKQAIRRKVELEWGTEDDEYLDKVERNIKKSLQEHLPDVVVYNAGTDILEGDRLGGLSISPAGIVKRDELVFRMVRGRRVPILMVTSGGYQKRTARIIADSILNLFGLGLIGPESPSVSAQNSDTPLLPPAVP

[2] = target: T4, Polyamine deacetylase HDAC10 (Homo sapiens, UniProt Q969S8); assay: Inhibition of recombinant human N-terminal FLAG-tagged HDAC10 (1 to 613 residues) expressed in Sf9 insect cells using Fluor de Lys deacetylase or Fluor de Lys Green deacetylase substrate by fluorescent microplate reader assay
T4 sequence (Q969S8 whole entry): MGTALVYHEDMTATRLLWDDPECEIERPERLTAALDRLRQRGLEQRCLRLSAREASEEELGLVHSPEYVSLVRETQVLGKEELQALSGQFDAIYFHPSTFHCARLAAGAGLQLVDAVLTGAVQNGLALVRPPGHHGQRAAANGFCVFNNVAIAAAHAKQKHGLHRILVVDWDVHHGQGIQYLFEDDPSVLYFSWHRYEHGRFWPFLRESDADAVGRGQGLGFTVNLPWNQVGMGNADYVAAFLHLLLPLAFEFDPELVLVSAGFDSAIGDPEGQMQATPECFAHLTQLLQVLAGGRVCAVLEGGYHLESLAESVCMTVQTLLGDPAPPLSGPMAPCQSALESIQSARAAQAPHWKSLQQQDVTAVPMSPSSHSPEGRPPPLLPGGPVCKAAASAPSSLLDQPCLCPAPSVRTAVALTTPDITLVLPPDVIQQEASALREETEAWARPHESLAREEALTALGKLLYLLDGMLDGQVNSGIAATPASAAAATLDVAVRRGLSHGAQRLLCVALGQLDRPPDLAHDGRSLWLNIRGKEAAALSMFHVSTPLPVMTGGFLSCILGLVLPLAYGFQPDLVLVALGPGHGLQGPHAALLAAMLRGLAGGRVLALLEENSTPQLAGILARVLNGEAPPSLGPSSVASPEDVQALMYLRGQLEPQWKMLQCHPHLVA

Histone deacetylase 7 = target: T5, Histone deacetylase 7 (Homo sapiens, UniProt Q8WUI4); assay: Inhibition of recombinant human N-terminal GST-tagged HDAC7 (518 to end residues) expressed in baculovirus expression system using Nepsilon-Trifluoroacetyl L-lysine as substrate by fluorescent microplate reader assay
T5 sequence (Q8WUI4 whole entry): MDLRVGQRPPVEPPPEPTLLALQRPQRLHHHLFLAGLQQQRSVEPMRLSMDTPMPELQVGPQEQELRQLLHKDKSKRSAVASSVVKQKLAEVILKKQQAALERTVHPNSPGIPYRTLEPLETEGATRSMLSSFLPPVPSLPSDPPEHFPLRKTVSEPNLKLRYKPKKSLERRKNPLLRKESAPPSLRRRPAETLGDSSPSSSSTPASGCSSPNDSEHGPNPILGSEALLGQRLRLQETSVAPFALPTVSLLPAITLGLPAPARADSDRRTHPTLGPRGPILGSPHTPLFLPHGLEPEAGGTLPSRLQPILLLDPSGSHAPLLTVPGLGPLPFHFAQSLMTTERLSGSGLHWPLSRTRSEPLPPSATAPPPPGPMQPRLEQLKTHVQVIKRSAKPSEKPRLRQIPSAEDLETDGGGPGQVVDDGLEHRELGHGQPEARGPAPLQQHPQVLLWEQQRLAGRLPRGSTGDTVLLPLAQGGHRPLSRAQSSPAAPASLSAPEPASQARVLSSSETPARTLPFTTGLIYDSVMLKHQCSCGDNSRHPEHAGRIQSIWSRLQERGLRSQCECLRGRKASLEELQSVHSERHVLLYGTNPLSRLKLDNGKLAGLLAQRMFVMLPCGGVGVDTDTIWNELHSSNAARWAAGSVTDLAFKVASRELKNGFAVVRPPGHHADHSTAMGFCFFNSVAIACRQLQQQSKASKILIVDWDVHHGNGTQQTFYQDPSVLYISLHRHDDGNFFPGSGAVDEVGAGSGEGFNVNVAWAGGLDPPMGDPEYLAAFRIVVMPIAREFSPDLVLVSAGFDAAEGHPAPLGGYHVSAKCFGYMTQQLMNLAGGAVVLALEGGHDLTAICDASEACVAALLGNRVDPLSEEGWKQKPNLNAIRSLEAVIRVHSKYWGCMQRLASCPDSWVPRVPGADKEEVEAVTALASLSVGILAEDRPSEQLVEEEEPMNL

Histone deacetylase 2, sequence (Q92769 whole entry, the tested form may be a part): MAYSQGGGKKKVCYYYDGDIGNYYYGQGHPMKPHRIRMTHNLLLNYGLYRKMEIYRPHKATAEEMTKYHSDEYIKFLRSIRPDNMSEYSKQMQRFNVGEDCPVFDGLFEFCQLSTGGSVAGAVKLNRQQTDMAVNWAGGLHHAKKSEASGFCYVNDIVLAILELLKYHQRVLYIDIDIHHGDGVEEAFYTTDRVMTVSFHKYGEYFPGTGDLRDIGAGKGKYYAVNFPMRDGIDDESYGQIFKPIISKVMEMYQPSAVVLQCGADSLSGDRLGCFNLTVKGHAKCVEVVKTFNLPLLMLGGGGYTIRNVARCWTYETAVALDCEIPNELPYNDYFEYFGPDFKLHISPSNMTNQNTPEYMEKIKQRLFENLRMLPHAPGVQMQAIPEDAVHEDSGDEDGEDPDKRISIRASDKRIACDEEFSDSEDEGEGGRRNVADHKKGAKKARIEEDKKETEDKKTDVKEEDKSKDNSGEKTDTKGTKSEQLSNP
Histone deacetylase 3, sequence (O15379 whole entry, the tested form may be a part): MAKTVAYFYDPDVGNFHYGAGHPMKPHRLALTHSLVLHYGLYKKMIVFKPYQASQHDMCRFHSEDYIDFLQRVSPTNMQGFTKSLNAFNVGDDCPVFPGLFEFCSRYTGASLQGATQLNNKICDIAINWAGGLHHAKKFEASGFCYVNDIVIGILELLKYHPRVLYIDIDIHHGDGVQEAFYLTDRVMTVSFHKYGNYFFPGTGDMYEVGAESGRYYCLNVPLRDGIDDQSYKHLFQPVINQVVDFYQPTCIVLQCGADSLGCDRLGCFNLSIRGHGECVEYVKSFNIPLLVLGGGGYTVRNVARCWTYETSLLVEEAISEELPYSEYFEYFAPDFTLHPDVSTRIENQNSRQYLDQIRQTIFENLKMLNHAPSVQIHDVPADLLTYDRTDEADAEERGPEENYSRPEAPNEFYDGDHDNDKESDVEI
Histone deacetylase 1, sequence (Q13547 whole entry): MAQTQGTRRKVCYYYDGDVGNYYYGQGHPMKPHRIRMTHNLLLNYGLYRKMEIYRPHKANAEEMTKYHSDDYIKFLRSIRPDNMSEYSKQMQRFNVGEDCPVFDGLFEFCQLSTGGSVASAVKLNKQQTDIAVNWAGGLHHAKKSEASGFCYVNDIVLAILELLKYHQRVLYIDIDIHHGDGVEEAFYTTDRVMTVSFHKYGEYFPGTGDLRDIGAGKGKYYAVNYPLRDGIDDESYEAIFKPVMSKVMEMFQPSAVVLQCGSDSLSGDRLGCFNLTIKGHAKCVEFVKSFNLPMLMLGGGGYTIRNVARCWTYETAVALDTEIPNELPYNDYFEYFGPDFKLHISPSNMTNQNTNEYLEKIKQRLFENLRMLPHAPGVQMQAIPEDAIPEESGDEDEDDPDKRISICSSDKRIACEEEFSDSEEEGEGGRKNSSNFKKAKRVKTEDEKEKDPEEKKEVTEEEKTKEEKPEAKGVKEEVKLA
Histone deacetylase 4, sequence (P56524 whole entry, the tested form may be a part): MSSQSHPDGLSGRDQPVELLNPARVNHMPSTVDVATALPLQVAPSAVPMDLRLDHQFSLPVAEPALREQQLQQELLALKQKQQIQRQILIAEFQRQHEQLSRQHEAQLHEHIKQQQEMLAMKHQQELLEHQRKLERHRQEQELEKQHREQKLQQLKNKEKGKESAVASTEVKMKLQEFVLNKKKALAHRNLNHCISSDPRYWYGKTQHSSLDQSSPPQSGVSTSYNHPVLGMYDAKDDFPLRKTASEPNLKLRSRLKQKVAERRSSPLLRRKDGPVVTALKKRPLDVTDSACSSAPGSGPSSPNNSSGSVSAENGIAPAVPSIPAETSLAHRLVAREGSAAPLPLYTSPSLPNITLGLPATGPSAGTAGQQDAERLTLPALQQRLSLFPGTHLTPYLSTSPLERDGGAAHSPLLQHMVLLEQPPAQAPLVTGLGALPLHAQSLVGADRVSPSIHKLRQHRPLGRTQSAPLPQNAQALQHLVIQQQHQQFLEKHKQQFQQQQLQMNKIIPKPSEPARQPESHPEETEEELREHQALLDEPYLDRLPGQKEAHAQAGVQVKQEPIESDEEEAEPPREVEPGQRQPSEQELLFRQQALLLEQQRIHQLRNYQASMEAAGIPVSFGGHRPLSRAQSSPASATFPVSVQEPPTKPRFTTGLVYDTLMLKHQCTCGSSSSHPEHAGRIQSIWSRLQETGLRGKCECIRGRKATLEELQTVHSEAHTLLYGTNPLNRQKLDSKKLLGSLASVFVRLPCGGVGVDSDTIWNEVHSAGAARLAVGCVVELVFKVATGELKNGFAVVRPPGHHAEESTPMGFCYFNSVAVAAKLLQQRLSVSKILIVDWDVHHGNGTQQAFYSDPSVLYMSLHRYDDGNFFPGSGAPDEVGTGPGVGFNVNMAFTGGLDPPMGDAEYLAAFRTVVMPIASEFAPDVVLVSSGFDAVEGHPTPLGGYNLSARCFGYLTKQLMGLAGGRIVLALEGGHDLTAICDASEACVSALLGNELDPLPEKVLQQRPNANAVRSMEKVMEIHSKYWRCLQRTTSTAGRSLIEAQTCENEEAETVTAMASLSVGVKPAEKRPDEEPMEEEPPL
Histone deacetylase 5, sequence (Q9UQL6 whole entry, the tested form may be a part): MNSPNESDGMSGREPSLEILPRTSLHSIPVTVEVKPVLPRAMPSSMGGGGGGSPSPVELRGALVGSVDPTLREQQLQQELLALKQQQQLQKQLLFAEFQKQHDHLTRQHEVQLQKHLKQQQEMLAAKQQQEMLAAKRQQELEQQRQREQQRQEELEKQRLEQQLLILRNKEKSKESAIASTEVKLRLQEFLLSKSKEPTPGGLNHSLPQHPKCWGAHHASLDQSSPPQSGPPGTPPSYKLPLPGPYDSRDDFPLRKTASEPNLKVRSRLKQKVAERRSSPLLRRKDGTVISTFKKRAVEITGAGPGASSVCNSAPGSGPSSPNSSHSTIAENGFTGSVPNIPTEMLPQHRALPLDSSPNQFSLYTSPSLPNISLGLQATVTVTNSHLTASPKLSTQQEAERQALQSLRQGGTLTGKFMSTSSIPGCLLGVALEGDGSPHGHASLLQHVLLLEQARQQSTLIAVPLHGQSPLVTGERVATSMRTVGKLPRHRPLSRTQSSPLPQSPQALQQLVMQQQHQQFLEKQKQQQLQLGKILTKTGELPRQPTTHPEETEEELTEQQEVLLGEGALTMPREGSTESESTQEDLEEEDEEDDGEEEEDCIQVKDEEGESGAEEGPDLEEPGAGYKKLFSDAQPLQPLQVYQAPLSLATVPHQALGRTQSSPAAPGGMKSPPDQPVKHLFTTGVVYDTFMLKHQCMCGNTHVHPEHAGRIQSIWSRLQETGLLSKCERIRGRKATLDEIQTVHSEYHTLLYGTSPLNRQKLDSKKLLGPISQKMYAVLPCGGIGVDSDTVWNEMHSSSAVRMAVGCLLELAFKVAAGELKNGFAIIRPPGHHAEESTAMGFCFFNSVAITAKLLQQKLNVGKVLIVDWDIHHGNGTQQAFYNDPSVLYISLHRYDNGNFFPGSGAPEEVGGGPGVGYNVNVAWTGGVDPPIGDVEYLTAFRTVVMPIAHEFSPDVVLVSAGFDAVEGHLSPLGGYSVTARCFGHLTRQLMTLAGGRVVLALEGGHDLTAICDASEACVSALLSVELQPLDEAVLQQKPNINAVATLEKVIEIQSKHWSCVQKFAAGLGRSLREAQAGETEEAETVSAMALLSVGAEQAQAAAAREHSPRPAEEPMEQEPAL
Histone deacetylase 9, sequence (Q9UKV0 whole entry, the tested form may be a part): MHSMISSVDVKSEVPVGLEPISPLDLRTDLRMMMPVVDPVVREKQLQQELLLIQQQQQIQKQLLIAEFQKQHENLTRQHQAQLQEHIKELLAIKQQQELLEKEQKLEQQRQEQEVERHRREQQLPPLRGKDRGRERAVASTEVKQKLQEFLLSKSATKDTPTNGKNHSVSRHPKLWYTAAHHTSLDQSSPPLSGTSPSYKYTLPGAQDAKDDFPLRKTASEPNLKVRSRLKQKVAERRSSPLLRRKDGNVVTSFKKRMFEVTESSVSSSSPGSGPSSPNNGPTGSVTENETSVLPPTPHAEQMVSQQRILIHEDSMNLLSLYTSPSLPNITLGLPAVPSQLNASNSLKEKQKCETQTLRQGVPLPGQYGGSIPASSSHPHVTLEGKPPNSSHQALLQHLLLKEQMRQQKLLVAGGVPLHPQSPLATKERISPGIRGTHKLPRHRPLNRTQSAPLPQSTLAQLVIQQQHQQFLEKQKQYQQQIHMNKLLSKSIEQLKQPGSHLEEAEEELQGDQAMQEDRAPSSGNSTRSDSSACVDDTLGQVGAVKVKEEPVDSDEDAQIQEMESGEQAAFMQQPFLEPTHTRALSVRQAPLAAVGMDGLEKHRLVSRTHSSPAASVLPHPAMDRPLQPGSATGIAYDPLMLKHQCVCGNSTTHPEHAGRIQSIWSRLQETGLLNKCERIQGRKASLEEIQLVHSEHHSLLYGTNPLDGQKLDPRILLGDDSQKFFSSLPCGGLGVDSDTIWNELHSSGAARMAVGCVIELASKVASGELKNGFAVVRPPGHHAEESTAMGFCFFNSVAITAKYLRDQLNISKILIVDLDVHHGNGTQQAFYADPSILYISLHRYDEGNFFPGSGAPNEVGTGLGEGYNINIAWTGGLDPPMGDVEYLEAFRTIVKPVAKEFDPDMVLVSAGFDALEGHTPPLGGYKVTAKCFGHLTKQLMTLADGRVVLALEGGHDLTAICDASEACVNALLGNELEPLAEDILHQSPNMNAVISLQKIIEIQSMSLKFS

| IC50 [1] [nM] | IC50 (Histone deacetylase 1) [nM] | Structure (SMILES) | Selectivity Index (Homo sapiens) | other results |
| --- | --- | --- | --- | --- |
| 10 | 718 | CCN(CC)Cc1ccc2cc(COC(=O)Nc3c(F)cc(C(=O)NO)cc3F)ccc2c1 | 70 | – |
| – | – | O=C(NO)c1cc(F)c(Cn2nnnc2-c2cccs2)c(F)c1 | – | IC50 (Histone deacetylase 2): 9230 nM; IC50 (Histone deacetylase 3): 6040 nM; IC50 (Histone deacetylase 11): 5660 nM; IC50 [2]: 8740 nM |
| 49 | 6820 | Cc1ccc(C(=O)NO)cc1F | 140 | – |
| 70 | 11400 | Cc1ccc(C(=O)NO)cn1 | 162 | – |
| 27 | 13800 | Cc1c(F)cc(C(=O)NO)cc1F | 505 | – |
| 240 | 9710 | Nc1ccc(C(=O)NO)cn1 | 40 | – |
| 1340 | 25400 | O=C(NO)c1ccccc1 [BENZOHYDROXAMATE] | 19 | – |
| 112 | 15800 | Nc1c(F)cc(C(=O)NO)cc1F | 141 | – |
| 183 | 7390 | Nc1ccc(C(=O)NO)cc1F | 40 | – |
| 453 | 29400 | O=C(NO)c1cccc(F)c1 | 64 | – |
| 58 | 3210 | CC(=O)Nc1ccc(C(=O)NO)cc1F | 55 | – |
| 140 | 5640 | Cc1ccc(C(=O)NO)cc1 | 40 | – |
| 64 | 3060 | Nc1ncc(C(=O)NO)cn1 | 47 | – |
| 389 | 7140 | Nc1ccc(C(=O)NO)cc1 | 18 | – |
| 162 | 1910 | CC(=O)Nc1ccc(C(=O)NO)cc1 | 11 | – |
| 679 | 35000 | O=C(NO)c1cccnc1 [NICOXAMAT] | 51 | – |

| Structure (SMILES) | IC50 [1] [nM] | IC50 (Histone deacetylase 1) [nM] | Selectivity Index (Homo sapiens) | other results |
| --- | --- | --- | --- | --- |
| O=C(NO)c1cc(F)c(Cn2nnc(-c3ncccn3)n2)c(F)c1 | – | 3960 | – | IC50 (Histone deacetylase 8): 504 nM; IC50 (Histone deacetylase 2): 17200 nM; IC50 (Histone deacetylase 5): 2790 nM; IC50 (Histone deacetylase 9): 480 nM; IC50 (Histone deacetylase 4): 562 nM; IC50 (Histone deacetylase 3): 5180 nM; IC50 (Histone deacetylase 11): 3070 nM; IC50 [2]: 9080 nM |
| O=C(NO)c1ccc(Cn2nnc(-c3ncccn3)n2)cc1 | – | 930 | 733 | IC50 (Histone deacetylase 8): 320 nM; IC50 (Histone deacetylase 2): 3010 nM; IC50 (Histone deacetylase 7): 1010 nM; IC50 (Histone deacetylase 5): 5000 nM; IC50 (Histone deacetylase 9): 1700 nM; IC50 (Histone deacetylase 4): 4600 nM; IC50 (Histone deacetylase 3): 884 nM; IC50 (Histone deacetylase 11): 762 nM; IC50 [2]: 474 nM |
